Test results published in patent US5965088A, “Method for providing rapid disinfection of contact lenses” (priority 1997, dated 1999).
Read-outs that look alike come from different tables or passages of the source.

Columns and labels:
[1] = tested on: Candida albicans (ATCC 10231); assay: Antimicrobial efficacy (stand-alone log reduction), C. albicans; format: cell-based; settings: for log reduction at 4 ppm / log reduction at 4 µg/mL: Candida albicans; for log reduction at 4 µg/mL: 4.0 ppm alexidine in ReNu MPS; for Log Reduction C. albicans: PAPB 0.0
Experimental: This Example illustrates the microbiocidal efficacy of solutions according to the present invention. The antimicrobial efficacy of each of various compositions for the chemical disinfection of contact lenses was evaluated. Microbial challenge inoculums were prepared using Pseudomonas aeruginosa (ATCC 9027), Staphylococcus aureus (ATCC 6538), Serratia marcescens (ATCC 13880), Candida albicans (ATCC 10231), and Fusarium solani (ATCC 36031). The test organisms were cultured on appropriate agar and the cultures were harvested using sterile DPBST (Dulbecco's Phosphate Buffered Saline plus 0.05% w/v polysorbate 80) or a suitable diluent and transferred to a suitable vessel. Spore suspensions were filtered through sterile glass wool to remove hyphal fragments. Serratia marcescens, as appropriate, was filtered (eg., through a 1.2 μ filter) to clarify the suspension. After harvesting, the suspension was centrifuged at no more than 5000× g for a maximum of 30 minutes at 20-25° C. The supernatant was poured off and resuspended in DPBST or other suitable diluent. The suspension was centrifuged a second time, and resuspended in DPBST or other suitable diluent. All challenge bacterial and fungal cell suspensions were adjusted with DPBST or other suitable diluent to 1×10^7 -10^8 cfu/mL. The appropriate cell concentration may be estimated by measuring the turbidity of the suspension, for example using a spectrophotometer at a preselected wavelength, for example 490 nm. One tube was prepared containing a minimum of 10 mL of test solution per challenge organism. Each tube of the solution to be tested was inoculated with a suspension of the test organism sufficient to provide a final count of 1.0×10^5 -10^6 cfu/mL, the volume of the inoculum not exceeding 1% of the sample volume. Dispersion of the inoculum was ensured by vortexing the sample for at least 15 seconds. The inoculated product was stored at 10-25° C. Aliquots in the amount of 1.0 mL were taken of the inoculated product for determination of viable counts after certain time periods of disinfection. The time points for the bacteria were 25, 50, 75, and 100% of the minimum disinfection time. Yeast and mold were tested at an additional timepoint of at least 400% of the minimum disinfection time. The suspension was mixed well by vortexing vigorously for at least 5 second. The 1.0 mL aliquots removed at the specified time intervals were subjected to a suitable series of decimal dilutions in validated neutralizing media. The suspensions were mixed vigorously and incubated for a suitable period of time to allow for neutralization of the microbial agent. The viable count of organisms was determined in appropriate dilutions by preparation of triplicate plates of trypticase soy (TSA) agar for bacteria and Sabouraud dextrose agar (SDA) for mold and yeast. The bacterial recovery plates were incubated at 30-35° C. for 2-4 days. The yeast was incubated at 20-30° C. for 2-4 days and mold recovery plates at 20-25° C. for 3-7 days. The average number of colony forming units was determined on countable plates. Countable plates refer to 30-300 cfu/plates for bacteria and yeast, and 8 to 80 cfu/plate for mold except when colonies are observed only for the 10^0 or 10^-1 dilution plates. The microbial reduction was then calculated at the specified time points. […] Following inoculation in a validated neutralizing broth and incubation for an appropriate period of time, the inoculum control must be between 1.0×10^5 -1.0×10^6 cfu/mL
The solutions were evaluated based on the performance requirement referred to as the "Stand-Alone Procedure for Disinfecting Products" (hereafter the "stand-alone test") and is based on the Disinfection Efficacy Testing for contact lens care products under the Draft Premarket Notification (510(k)) Guidance Document For Contact Lens Care Products dated Apr. 1, 1996, prepared by the U.S. Food and Drug Administration, Division of Ophthalmic Devices. […]

[2] = tested on: Pseudomonas aeruginosa, Staphylococcus aureus, Serratia marcescens, Candida albicans, Fusarium solani; assay: Stand-Alone Procedure, secondary performance criteria (entrance into the regimen test); format: cell-based, bacteria, yeast and mold; settings: for 10 minute entrance into the regimen: 10 min; for secondary performance criteria: 4.0 ppm, Example 12
Experimental: This Example illustrates the microbiocidal efficacy of solutions according to the present invention. The antimicrobial efficacy of each of various compositions for the chemical disinfection of contact lenses was evaluated. Microbial challenge inoculums were prepared using Pseudomonas aeruginosa (ATCC 9027), Staphylococcus aureus (ATCC 6538), Serratia marcescens (ATCC 13880), Candida albicans (ATCC 10231), and Fusarium solani (ATCC 36031). The test organisms were cultured on appropriate agar and the cultures were harvested using sterile DPBST (Dulbecco's Phosphate Buffered Saline plus 0.05% w/v polysorbate 80) or a suitable diluent and transferred to a suitable vessel. Spore suspensions were filtered through sterile glass wool to remove hyphal fragments. Serratia marcescens, as appropriate, was filtered (eg., through a 1.2 μ filter) to clarify the suspension. After harvesting, the suspension was centrifuged at no more than 5000× g for a maximum of 30 minutes at 20-25° C. The supernatant was poured off and resuspended in DPBST or other suitable diluent. The suspension was centrifuged a second time, and resuspended in DPBST or other suitable diluent. All challenge bacterial and fungal cell suspensions were adjusted with DPBST or other suitable diluent to 1×10^7 -10^8 cfu/mL. The appropriate cell concentration may be estimated by measuring the turbidity of the suspension, for example using a spectrophotometer at a preselected wavelength, for example 490 nm. One tube was prepared containing a minimum of 10 mL of test solution per challenge organism. Each tube of the solution to be tested was inoculated with a suspension of the test organism sufficient to provide a final count of 1.0×10^5 -10^6 cfu/mL, the volume of the inoculum not exceeding 1% of the sample volume. Dispersion of the inoculum was ensured by vortexing the sample for at least 15 seconds. The inoculated product was stored at 10-25° C. Aliquots in the amount of 1.0 mL were taken of the inoculated product for determination of viable counts after certain time periods of disinfection. […] The viable count of organisms was determined in appropriate dilutions by preparation of triplicate plates of trypticase soy (TSA) agar for bacteria and Sabouraud dextrose agar (SDA) for mold and yeast. […] The average number of colony forming units was determined on countable plates. […] The microbial reduction was then calculated at the specified time points. […]
The solutions were evaluated based on the performance requirement referred to as the "Stand-Alone Procedure for Disinfecting Products" (hereafter the "stand-alone test") and is based on the Disinfection Efficacy Testing for contact lens care products under the Draft Premarket Notification (510(k)) Guidance Document For Contact Lens Care Products dated Apr. […]

`CCCCC(CC)CNC(=N)NC(=N)NCCCCCCNC(=N)NC(=N)NCC(CC)CCCC.Cl.Cl` (stereo not drawn) [Alexidine.2HCl, 1,1 '-hexamethylenebis(5-(2-ethylhexyl)-biguanide) dihydrochloride] was tested, and the “Log Reduction” value ([1]; 4.0 ppm, Ex. 8, different batch aged 19 months at 25 °C, 15 min, dihydrochloride) was < 1 log, the log reduction at 4 ppm ([1]; ATCC10231, 2.5 min, 4.0 ppm, aged 18 months, Exp. 1, 2.5 min, read-out: Log Reduction) was 0 and the log reduction at 4 ppm ([1]; ATCC10231, 2.5 min, 4.0 ppm, aged 18 months, Exp. 2, 2.5 min, read-out: Log Reduction) was 0.1. It also gave a log reduction at 4 ppm ([1]; ATCC10231, 2.5 min, 4.0 ppm, aged 18 months, Exp. 3, 2.5 min, read-out: Log Reduction) of 0, a log reduction at 4 ppm ([1]; ATCC10231, 5 min, 4.0 ppm, aged 18 months, Exp. 1, 5.0 min, read-out: Log Reduction) of 0 and a log reduction at 4 ppm ([1]; ATCC10231, 5 min, 4.0 ppm, aged 18 months, Exp. 2, 5.0 min, read-out: Log Reduction) of 0.1. The log reduction at 4 ppm ([1]; ATCC10231, 5 min, 4.0 ppm, aged 18 months, Exp. 3, 5.0 min, read-out: Log Reduction) was 0, the log reduction at 4 ppm ([1]; ATCC10231, 0.125 h, 4.0 ppm, aged 18 months, Exp. 1, 7.5 min, read-out: Log Reduction) was 0.6 and the log reduction at 4 ppm ([1]; ATCC10231, 0.125 h, 4.0 ppm, aged 18 months, Exp. 2, 7.5 min, read-out: Log Reduction) was 0.5. The log reduction at 4 ppm ([1]; ATCC10231, 0.125 h, 4.0 ppm, aged 18 months, Exp. 3, 7.5 min, read-out: Log Reduction) was 0.4, the log reduction at 4 ppm ([1]; ATCC10231, 10 min, 4.0 ppm, aged 18 months, Exp. 1, 10.0 min, read-out: Log Reduction) was 0.7 and the log reduction at 4 ppm ([1]; ATCC10231, 10 min, 4.0 ppm, aged 18 months, Exp. 2, 10.0 min, read-out: Log Reduction) was 0.6. It also gave a log reduction at 4 ppm ([1]; ATCC10231, 10 min, 4.0 ppm, aged 18 months, Exp. 3, 10.0 min, read-out: Log Reduction) of 0.4, a log reduction at 4 ppm ([1]; ATCC10231, 0.25 h, 4.0 ppm, Ex. 6, aged 19 months at 25 °C, 15 min) of 1.9 and a log reduction at 4 ppm ([1]; ATCC10231, 0.25 h, 4.0 ppm, Ex. 7, different lot aged 18 months, 15 min, read-out: Log Reduction) of 1. It also gave a log reduction at 4 ppm ([1]; ATCC10231, 0.25 h, 4.0 ppm, Ex. 8, different batch aged 19 months at 25 °C, 15 min, read-out: Log Reduction) of 0.9, a log reduction at 4 ppm ([1]; ATCC10231, 0.5 h, 4.0 ppm, Ex. 6, aged 19 months at 25 °C, 30 min, read-out: Log Reduction) of 2.5 and a log reduction at 4 ppm ([1]; ATCC10231, 0.5 h, 4.0 ppm, Ex. 7, different lot aged 18 months, 30 min, read-out: Log Reduction) of 1.7. It also gave a log reduction at 4 ppm ([1]; ATCC10231, 0.5 h, 4.0 ppm, Ex. 8, different batch aged 19 months at 25 °C, 30 min, read-out: Log Reduction) of 1.7, a log reduction at 4 ppm ([1]; ATCC10231, 40 min, 4.0 ppm, aged 18 months, Exp. 1, 40.0 min, read-out: Log Reduction) of 2.1 and a log reduction at 4 ppm ([1]; ATCC10231, 40 min, 4.0 ppm, aged 18 months, Exp. 2, 40.0 min, read-out: Log Reduction) of 1. It also gave a log reduction at 4 ppm ([1]; ATCC10231, 40 min, 4.0 ppm, aged 18 months, Exp. 3, 40.0 min, read-out: Log Reduction) of 1, a log reduction at 4 ppm ([1]; ATCC10231, 0.75 h, 4.0 ppm, Ex. 6, aged 19 months at 25 °C, 45 min) of 2.7 and a log reduction at 4 ppm ([1]; ATCC10231, 0.75 h, 4.0 ppm, Ex. 7, different lot aged 18 months, 45 min, read-out: Log Reduction) of 1.9. The log reduction at 4 ppm ([1]; ATCC10231, 0.75 h, 4.0 ppm, Ex. 8, different batch aged 19 months at 25 °C, 45 min) was 1.8, the log reduction at 4 µg/mL ([1]; ATCC10231, 1 h, 1 hr) was 2.9 and the log reduction at 4 ppm ([1]; ATCC10231, 1 h, 4.0 ppm, Ex. 6, aged 19 months at 25 °C, 60 min, read-out: Log Reduction) was 2.8. For the same compound, the log reduction at 4 ppm ([1]; ATCC10231, 1 h, 4.0 ppm, Ex. 7, different lot aged 18 months, 60 min, read-out: Log Reduction) was 2.1, the log reduction at 4 ppm ([1]; ATCC10231, 1 h, 4.0 ppm, Ex. 8, different batch aged 19 months at 25 °C, 60 min, read-out: Log Reduction) was 1.9 and the log reduction at 4 µg/mL ([1]; ATCC10231, 2 h, 2 hr) was 4.3. For the same compound, the log reduction at 4 µg/mL ([1]; ATCC10231, 3 h, 3 hr) was > 4.7, the log reduction at 4 µg/mL ([1]; ATCC10231, 4 h, 4 hr) was 3.9 and the log reduction at 4 ppm ([1]; ATCC10231, 4 h, 4.0 ppm, Ex. 6, aged 19 months at 25 °C, 4 h, read-out: Log Reduction) was 3.4. For the same compound, the log reduction at 4 ppm ([1]; ATCC10231, 4 h, 4.0 ppm, Ex. 7, different lot aged 18 months, 4 hrs) was 3.1, the log reduction at 4 ppm ([1]; ATCC10231, 4 h, 4.0 ppm, Ex. 8, different batch aged 19 months at 25 °C, 4 hrs, read-out: Log Reduction) was 2.6 and the log reduction at 4 µg/mL ([1]; ATCC10231, 24 h, 24 hr) was 4.6. For the same compound, the “Log Reduction C. albicans” value ([1]; alexidine 0.5 ppm, 5 min) was 0.3 log, the “Log Reduction C. albicans” value ([1]; alexidine 0.5 ppm, 15 min) was 1.0 log and the “Log Reduction C. albicans” value ([1]; alexidine 0.5 ppm, 30 min) was -0.2 log. For the same compound, the “Log Reduction C. albicans” value ([1]; alexidine 0.5 ppm, 60 min) was -0.1 log, the “Log Reduction C. albicans” value ([1]; alexidine 2.6 ppm, 5 min) was 0.4 log and the “Log Reduction C. albicans” value ([1]; alexidine 2.6 ppm, 15 min) was 0.5 log. For the same compound, the “Log Reduction C. albicans” value ([1]; alexidine 2.6 ppm, 30 min) was 0.5 log, the “Log Reduction C. albicans” value ([1]; alexidine 2.6 ppm, 60 min) was 1.4 log and the “10 minute entrance into the regimen” value ([2]; 1.0 ppm) was “does not pass the 10 minute entrance into the regimen”. For the same compound, the “10 minute entrance into the regimen” value ([2]; 2.0 ppm) was “passes the 10 minute entrance into the regimen”, the secondary performance criteria ([2]; soak 2.5 min) was “failed in all cases” and the secondary performance criteria ([2]; soak 10 min) was “met in all cases”.
